From article PMC11224556, “Next-generation of BBQ analogues that selectively target breast cancer” (Frontiers in Chemistry, 2024)
Like-named read-outs stand apart in the source and are kept apart here.

Experiments:
Type in all cases: cell-based, human
[1] = test system: broad panel of cancer cell lines and non-cancer breast cell line MCF10A; assay: MTT growth inhibition: GI50 ranges and selectivity across the cell line panel
Excerpt: (§1) Each BBQ analogue, 2-14 was screened for their growth inhibition ability (GI50) in a broad panel of cancer cell lines and a non-cancer breast cell line (MCF10A), using the MTT growth inhibition assay (Table 1) ([Baker et al., 2021b]). The cancer panel comprised HT29 (colorectal), U87 (brain), SJ-G2 (brain), A2780 (ovary), Du145 (prostate), BE2-C (neuronal), MIA (pancreas), H460 (lung, ER+), A431 (vulva, ER+ (estrogen receptor positive)), and a wide selection of breast cancer cell lines with varying receptor status including MCF-7 (ER + luminal A), T47D (ER/PR+ (progesterone receptor positive)luminal A), ZR-75-1 (ER/PR + luminal A), BT-474 (ER/PR/HER2+ luminal B), SKBR-3 (HER2+), MDA-MB-468, BT20, and MDA-MB-231 (basal, triple negative (TN) for ER, PR, and HER2).
(§2) Stock solutions were prepared as follows and stored as 20 mM DMSO solutions at −20 °C. All cell lines were cultured in a humidified atmosphere 5% CO2 at 37 °C. The cancer cell lines were maintained in Dulbecco’s modified Eagle’s medium (DMEM) (Trace Biosciences, Australia) supplemented with 10% foetal bovine serum (FBS), 10 mM sodium bicarbonate, penicillin (100 IU/mL), streptomycin (100 μg/mL), and glutamine (4 mM). The non-cancer MCF10A cell line was cultured in DMEM:F12 (1:1) cell culture media, 5% heat inactivated horse serum, supplemented with penicillin (50 IU/mL), streptomycin (50 μg/mL), 20 mM Hepes, L-glutamine (2 mM), epidermal growth factor (20 ng/mL), hydrocortisone (500 ng/mL), cholera toxin (100 ng/mL), and insulin (10 μg/mL). The AhR reporter cell line HT29-Lucia™ (Invivogen, United States) was maintained in DMEM supplemented with 10% heat inactivated FBS, L-glutamine (2 mM), penicillin (100 IU/mL), streptomycin (100 μg/mL), 100 μg/mL Normocin™, and 100 μg/mL of the selective antibiotic Zeocin™. All cell lines were purchased from the American Type Culture Collection (ATCC), except for A2780 and A431 which were from the European Collection of Authenticated Cell Cultures (ECACC), and SJ-G2 cell line which was from Dr Mary Danks, St Jude Children’s Research hospital, Memphis, TN.
(§3) Cells in logarithmic growth were transferred to 96-well plates. Cytotoxicity was determined by plating cells in duplicate in 100 μL medium at a density of 2,500–4,000 cells/well in 96 well plates. On day 0, (24 h after plating) when the cells were in logarithmic growth 100 μL medium with or without the test agent was added to each well. After 72 h drug exposure growth inhibitory effects were evaluated using the MTT (3-[4,5-dimethylthiazol-2-yl]-2,5-diphenyltetrazolium bromide) assay with absorbance read at 540 nm. An eight-point dose response curve was produced, using MS Excel software. From these dose-response curves, the GI50 value was calculated, representing the drug concentration at which cell growth is 50% inhibited based on the difference between the optical density values on day 0 and those at the end of drug exposure ([Bradshaw et al., 2008]; [Zhang et al., 2009]). Each data point was conducted in duplicate and the mean ± S.E.M. calculated from four to five replicates (n = 4 or 5), which were performed on separate occasions and separate cell line passages. Where shown, significant test results were determined using T-test analysis at p < 0.01 and p < 0.05 with a two tail distribution.

A2780 (ovary) cells = assay: MTT growth inhibition assay (72 h); conditions: Homo sapiens
Excerpt: as §1, §2, §3

A431 (vulva/skin) cells = assay: MTT growth inhibition assay (72 h); conditions: Homo sapiens, A-431, A431, Skin (ER)
Excerpt: as §1, §2, §3

BE2-C (neuronal) cells = assay: MTT growth inhibition assay (72 h); conditions: Homo sapiens, BE(2)-C, Neuron
Excerpt: as §1, §2, §3

BT20 breast cancer cells = assay: MTT growth inhibition assay (72 h); conditions: Homo sapiens, BT-20, BT20, Breast (TN)
Excerpt: as §1, §2, §3

[2] = test system: BT474 breast cancer cells; assay: MTT growth inhibition assay (72 h); conditions: Homo sapiens, BT-474, BT474, Breast (ER/PR/HER2)
Excerpt: as §1, §2, §3

Du145 (prostate) cells = assay: MTT growth inhibition assay (72 h); conditions: Homo sapiens, DU-145
Excerpt: as §1, §2, §3

H460 (lung) cells = assay: MTT growth inhibition assay (72 h); conditions: Homo sapiens, NCI-H460, H460, Lung (ER)
Excerpt: as §1, §2, §3

HT29 (colorectal) cells = assay: MTT growth inhibition assay (72 h); conditions: Homo sapiens, HT-29, HT29, Colon
Excerpt: as §1, §2, §3

[3] = test system: MCF-7 breast cancer cells; assay: MTT growth inhibition assay (72 h); conditions: Homo sapiens, MCF7, MCF-7, Breast (ER)
Excerpt: as §1, §2, §3

[4] = test system: MCF10A normal breast cells; assay: MTT growth inhibition assay (72 h); conditions: Homo sapiens, MCF-10A
Excerpt: as §1, §2, §3

[5] = test system: MDA-MB-231 breast cancer cells; assay: MTT growth inhibition assay (72 h); conditions: Homo sapiens, MDA-MB-231, Breast (TN)
Excerpt: as §1, §2, §3

MIA (pancreas) cells = assay: MTT growth inhibition assay (72 h); conditions: Homo sapiens
Excerpt: as §1, §2, §3

SJ-G2 (brain) cells = assay: MTT growth inhibition assay (72 h); conditions: Homo sapiens, SJ-G2, Brain (GBM)
Excerpt: as §1, §2, §3

[6] = test system: SKBR3 breast cancer cells; assay: MTT growth inhibition assay (72 h); conditions: Homo sapiens, SK-BR-3, SKBR3, Breast (HER2)
Excerpt: as §1, §2, §3

T47D breast cancer cells = assay: MTT growth inhibition assay (72 h); conditions: Homo sapiens, Breast (ER/PR)
Excerpt: as §1, §2, §3

U87 (brain) cells = assay: MTT growth inhibition assay (72 h); conditions: Homo sapiens, U87, Brain (GBM)
Excerpt: as §1, §2, §3

[7] = test system: ZR-75-1 breast cancer cells; assay: MTT growth inhibition assay (72 h); conditions: Homo sapiens, ZR-75-1, Breast (ER/PR)
Excerpt: as §1, §2, §3

[8] = test system: MDA-MB-468 breast cancer cells; assay: MTT growth inhibition assay (72 h); conditions: Homo sapiens, MDA-MB-468, Breast (TN)
Excerpt: as §1, §2, §3

Row | Compound | GI50 (A2780 (ovary) cells) [µM] | GI50 (A431 (vulva/skin) cells) [µM] | GI50 (BE2-C (neuronal) cells) [µM] | GI50 (BT20 breast cancer cells) [µM] | GI50 [2] [µM] | GI50 (Du145 (prostate) cells) [µM] | GI50 (H460 (lung) cells) [µM] | GI50 (HT29 (colorectal) cells) [µM] | GI50 [3] [µM] | GI50 [4] [µM] | GI50 [5] [µM] | GI50 (MIA (pancreas) cells) [µM] | GI50 (SJ-G2 (brain) cells) [µM] | GI50 [6] [µM] | GI50 (T47D breast cancer cells) [µM] | GI50 (U87 (brain) cells) [µM] | GI50 [7] [µM] | other results
1 | Nc1ccccc1N1C(=O)c2cccc3cccc(c23)C1=O [Compound 2, 2-(2-aminophenyl)-1H-benzo[de]isoquinoline-1,3(2H)-dione] | – | – | – | – | – | – | – | – | – | – | – | – | – | – | – | – | – | increase in growth inhibition potency compared with MCF10A cells (fold, range over cell lines) ([1]; A431, T47D, ZR-75-1, SKBR3, MDA-MB-468 vs MCF10A, from GI50 values of ref Gilbert et al., 2020): 100 to 300 fold
2 | O=c1c2cccc3cccc(c32)c2nc3ccc(Cl)cc3n12 [Compound 3, 10-Chloro-7H-benzo[de]benzo[4,5]imidazo[2,1-a]isoquinolin-7-one] | 6.2 ± 0.46 | 12 ± 1.8 | 17 ± 4.3 | 33 ± 4 | > 50 | 22 ± 3.1 | 7.2 ± 1.16 | 21 ± 3.3 | 7.9 ± 1.14 | 3.9 ± 0.21 | 17 ± 6.1 | > 50 | 33 ± 8.3 | 0.3 ± 0.12 | 11 ± 1.4 | 18 ± 3.8 | 0.48 ± 0.24 | GI50 ([1]; Homo sapiens, read-out: GI50 (range over cell lines and both compounds 3 and 4), ZR-75-1, SKBR3 and MDA-MB-468): 0.26 to 0.88 µM
3 | O=c1c2cccc3cccc(c32)c2nc3ccccc3n12 [Compound 5, 7H-Benzo[de]benzo[4,5]imidazo[2,1-a]isoquinolin-7-one] | 2.2 ± 0.21 | 0.05 ± 0.013 | 5.1 ± 0.74 | 0.41 ± 0.39 | 1.5 ± 1.3 | 4.1 ± 0.03 | 0.61 ± 0.13 | 2.1 ± 0.3 | 2.1 ± 0.44 | 3.2 ± 0.32 | 5.5 ± 1.8 | 5.2 ± 0.73 | 4.6 ± 0.23 | 0.032 ± 0.014 | 0.2 ± 0.073 | 7 ± 0.033 | 0.026 ± 0.015 | fold greater response (selectivity) in MDA-MB-468 than in normal MCF10A breast cells ([1]; GI50 MCF10A / GI50 MDA-MB-468): 3,200 fold; growth inhibition compared with normal cells (fold, range over cell lines) ([1]; H460, A431, T47D, ZR-75-1, SKBR3, MDA-MB-468, BT20 vs MCF10A): 5 to 3200 fold; GI50 ([1]; Homo sapiens, T47D, ZR-75-1, SKBR3, MDA-MB-468 and BT20, read-out: GI50 (range over cell lines)): 0.001 to 0.41 µM; GI50 ([1]; Homo sapiens, all other cell populations (than H460, A431, T47D, ZR-75-1, SKBR3, MDA-MB-468, BT20), read-out: GI50 (range over cell lines)): 1.5 to 7 µM; GI50 ([1]; Homo sapiens, other cell lines HT29, U87, SJ-G2, A2780, DU145, BE2-C, MIA, MDA-MB-231, read-out: GI50 (range over cell lines)): 2.1 to 7 µM; fold more potent than head group substituted analogues 3, 4, 6, 7, 8 and 9 ([1]; across the cell lines examined (Table 1)): > 10 fold; GI50 ([1]; select breast cancer cell lines MCF-7, T47D, ZR-75-1, SKBR3, MDA-MB-468, BT20, BT474, read-out: GI50 values (range over cell lines)): 0.001 to 2.1 µM
4 | O=C(O)c1ccc2c3c1cccc3c(=O)n1c3ccccc3nc21 [Compound 14, reference compound] | 12 ± 0.91 | 28 ± 5.1 | 6.9 ± 1.6 | 50 | > 50 | 21 ± 2 | 20 ± 0.33 | – | > 50 | 15 ± 0.58 | 50 | 20 ± 0.67 | 13 ± 1.2 | 21 ± 0.67 | 16 ± 0.58 | 25 ± 1.7 | 24 ± 3.3 | GI50 [8]: 6.13 ± 3.05 µM
